Here are results for seven molecules from ChEMBL document CHEMBL3627641, “Identification of a new p53/MDM2 inhibitor motif inspired by studies of chlorofusin” (Bioorg Med Chem Lett, 2015).

For one assay, the system named is SJSA-1. The experiment in a line: Cytotoxic activity against human SJSA1 cells. The assay is classed as functional, cell-based.
The subject of a further assay is A-375. The experiment in a line: Cytotoxic activity against human A375 cells. The assay is classed as functional, cell-based.
Setting [1] is: Homo sapiens, SJSA-1, read-out: IC50.

Each structure is given as a SMILES string.

With `O=C(N[C@@H](CCCn1cc(-c2ccc(Br)cc2)nn1)C(=O)O)OCC1c2ccccc2-c2ccccc21`, the IC50 entry in the assay with SJSA-1 (sjsa-1) and in the assay on A-375 (a-375) was “Not Active” throughout.

On to `COc1ccc(-c2cn(CCC[C@H](NC(=O)OCC3c4ccccc4-c4ccccc43)C(=O)O)nn2)cc1`, for which the IC50 result in the assay on SJSA-1 (sjsa-1) and in the assay on A-375 (a-375) was “Not Active” in each case.

For `Cc1ccc(-c2cn(CCC[C@H](NC(=O)OCC3c4ccccc4-c4ccccc43)C(=O)O)nn2)cc1`, the results for the IC50 in the assay on SJSA-1 (setting [1]) and in the assay with A-375 (a-375) were 33.1 µM and “Not Active”, respectively.

Consider `O=C(N[C@@H](CCCn1cc(-c2ccc(C(F)(F)F)cc2)nn1)C(=O)O)OCC1c2ccccc2-c2ccccc21`, for which the IC50 (as a rule, the midpoint of a concentration-inhibition curve) with SJSA-1 (setting [1]) was 31.2 µM; with A-375 (Homo sapiens, A-375, read-out: IC50), 49.3 µM.

As to `CC(C)(C)OC(=O)Nc1ccc(-c2cn(CCC[C@H](NC(=O)OCC3c4ccccc4-c4ccccc43)C(=O)O)nn2)cc1`, the concentration for half-maximal inhibition (IC50) result with SJSA-1 (sjsa-1) and in the assay on A-375 (a-375) was “Not Active” throughout.

On to `O=C(N[C@@H](CCCn1cc(-c2ccc(Cl)cc2)nn1)C(=O)O)OCC1c2ccccc2-c2ccccc21`, for which the IC50 entry in the assay on SJSA-1 (sjsa-1) and in the assay with A-375 (a-375) was “Not Active” each time.

Turning to `O=C(N[C@@H](CCCn1cc(-c2ccc(I)cc2)nn1)C(=O)O)OCC1c2ccccc2-c2ccccc21`, the IC50 result in the assay on SJSA-1 (sjsa-1) and in the assay with A-375 (a-375) was “Not Active” each time.
